target: human Nav1.8 (Homo sapiens (Human), UniProt Q9Y5Y9); assay: Nav1.8 Qube automated patch-clamp assay; format: cell-based; settings: Nav1.8 Qube Assay; human Nav1.8 channels stably expressed in HEK 293 cells
How it was run: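 Whole-cell automated patch clamp was run at room temperature on HEK293 cells stably expressing the channel. A 1 Hz, 10 s train of 20 ms pulses to 10 mV from −90 mV (repolarizing to −67 mV) was applied. Peak currents at the 1st and 10th pulses gave resting and inactivated-state IC50 values by Hill fit.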

Chain of human Nav1.8 (Q9Y5Y9 whole entry): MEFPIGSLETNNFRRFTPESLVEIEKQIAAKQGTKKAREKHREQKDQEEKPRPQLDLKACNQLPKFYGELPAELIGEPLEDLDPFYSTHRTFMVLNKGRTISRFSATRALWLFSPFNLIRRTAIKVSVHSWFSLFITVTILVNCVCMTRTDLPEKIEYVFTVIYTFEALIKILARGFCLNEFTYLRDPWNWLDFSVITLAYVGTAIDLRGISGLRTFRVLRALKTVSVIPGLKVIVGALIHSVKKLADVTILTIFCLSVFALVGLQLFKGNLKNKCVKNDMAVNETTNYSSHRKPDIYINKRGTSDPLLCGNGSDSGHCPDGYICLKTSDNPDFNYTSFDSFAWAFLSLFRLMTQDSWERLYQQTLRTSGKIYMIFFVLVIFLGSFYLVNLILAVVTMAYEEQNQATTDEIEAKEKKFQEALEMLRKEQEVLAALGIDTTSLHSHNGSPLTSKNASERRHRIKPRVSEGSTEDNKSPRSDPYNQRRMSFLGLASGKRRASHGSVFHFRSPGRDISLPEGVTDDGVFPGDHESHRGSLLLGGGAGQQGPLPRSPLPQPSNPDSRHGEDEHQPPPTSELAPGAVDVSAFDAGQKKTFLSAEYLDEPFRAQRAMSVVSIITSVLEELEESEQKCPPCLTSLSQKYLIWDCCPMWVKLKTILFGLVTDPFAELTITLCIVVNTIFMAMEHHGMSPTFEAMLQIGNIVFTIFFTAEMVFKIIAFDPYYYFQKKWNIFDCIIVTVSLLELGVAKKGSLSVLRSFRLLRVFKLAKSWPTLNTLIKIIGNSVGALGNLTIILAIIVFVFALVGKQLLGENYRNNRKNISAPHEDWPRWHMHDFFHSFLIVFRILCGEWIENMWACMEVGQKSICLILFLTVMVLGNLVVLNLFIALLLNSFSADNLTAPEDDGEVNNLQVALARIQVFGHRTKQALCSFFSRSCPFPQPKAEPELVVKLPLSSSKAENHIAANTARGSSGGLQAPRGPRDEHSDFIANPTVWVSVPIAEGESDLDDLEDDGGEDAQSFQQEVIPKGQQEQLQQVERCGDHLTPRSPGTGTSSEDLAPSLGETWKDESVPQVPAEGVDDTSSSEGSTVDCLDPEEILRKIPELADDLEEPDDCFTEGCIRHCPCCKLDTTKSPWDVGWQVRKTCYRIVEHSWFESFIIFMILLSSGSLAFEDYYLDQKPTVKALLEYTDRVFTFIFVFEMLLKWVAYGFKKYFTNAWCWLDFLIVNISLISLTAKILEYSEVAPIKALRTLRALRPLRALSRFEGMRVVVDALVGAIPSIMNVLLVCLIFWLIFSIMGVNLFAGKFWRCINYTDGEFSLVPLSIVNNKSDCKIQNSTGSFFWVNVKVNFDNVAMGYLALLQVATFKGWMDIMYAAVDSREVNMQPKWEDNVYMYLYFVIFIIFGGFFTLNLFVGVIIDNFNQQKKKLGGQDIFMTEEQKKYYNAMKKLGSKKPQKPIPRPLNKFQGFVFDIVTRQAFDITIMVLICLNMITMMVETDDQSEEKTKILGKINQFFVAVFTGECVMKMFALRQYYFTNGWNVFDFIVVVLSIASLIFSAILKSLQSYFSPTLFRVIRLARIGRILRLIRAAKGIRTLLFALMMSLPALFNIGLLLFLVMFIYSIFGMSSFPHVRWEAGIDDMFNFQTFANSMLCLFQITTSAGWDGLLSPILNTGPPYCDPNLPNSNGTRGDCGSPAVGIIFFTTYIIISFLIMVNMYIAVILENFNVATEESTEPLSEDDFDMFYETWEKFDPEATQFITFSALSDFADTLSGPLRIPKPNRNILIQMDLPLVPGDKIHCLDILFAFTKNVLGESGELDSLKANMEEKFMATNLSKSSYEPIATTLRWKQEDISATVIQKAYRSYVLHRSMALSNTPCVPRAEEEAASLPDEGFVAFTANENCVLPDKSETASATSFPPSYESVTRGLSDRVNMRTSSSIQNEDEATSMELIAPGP

Row | Compound | IC50 [nM]
1 | C[C@@H]1CN(c2ncc(C(F)(F)F)cc2C(=O)Nc2cccc(S(N)(=O)=O)c2)C[C@@H](C(F)(F)F)O1 [Example 146, 2-[(2R,6S)-2-methyl-6-(trifluoromethyl)morpholin-4-yl]-N-(3-sulfamoylphenyl)-5-(trifluoromethyl) pyridine-3-carboxamide] | 26
2 | CC(C)CS(=O)(=O)c1cccc(NC(=O)c2cc(C(F)(F)F)cnc2N2CCCCCC2)c1 [Example 119, 2-(azepan-1-yl)-N-(3-isobutylsulfonylphenyl)-5-(trifluoromethyl)-pyridine-3-carboxamide] | 2400
3 | NC(=O)c1cccc(NC(=O)c2cc(Cl)cnc2N2CCCC(F)(F)CC2)c1 [Example 15, N-(3-carbamoyl-phenyl)-5-chloro-2-(4,4-difluoroazepan-1-yl)pyridine-3-carboxamide] | 19
4 | Cc1nc2c(o1)CCN(c1ncc(C(F)(F)F)cc1C(=O)Nc1cccc(S(N)(=O)=O)c1)C2 [Example 73, 2-(2-methyl-6,7-dihydro-4H-oxazolo[4,5-c]pyridin-5-yl)-N-(3-sulfamoyl-phenyl)-5-(trifluoro-methyl)pyridine-3-carboxamide] | 8390
5 | CS(=O)(=O)c1cccc(NC(=O)c2cc(Br)cnc2N2CCCCCC2)c1 [Example 35, 2-(azepan-1-yl)-5-bromo-N-(3-methylsulfonyl-phenyl)pyridine-3-carboxamide] | 29
6 | Cc1nc(N2CCCC(F)(F)CC2)c(C(=O)N(C)c2cccc(S(N)(=O)=O)c2)c(C)c1Cl [Example 179, 5-chloro-2-(4,4-difluoroazepan-1-yl)-N,4,6-trimethyl-N-(3-sulfamoylphenyl)nicotinamide] | 873
7 | Cc1cc(C(=O)Nc2cccc(C(N)=O)c2)c(N2CCCCCC2)nc1C [Example 37, 2-(azepan-1-yl)-N-(3-carbamoylphenyl)-5,6-dimethyl-pyridine-3-carboxamide] | 106
8 | Cc1cc(Cl)nc(N2CCCC(F)(F)CC2)c1C(=O)Nc1cccc(C(N)=O)c1 [Example 17, N-(3-carbamoyl-phenyl)-6-chloro-2-(4,4-difluoroazepan-1-yl)-4-methyl-pyridine-3-carboxamide] | 29
9 | Cc1nc(N2CCC3(CC2)CC3)c(C(=O)Nc2cccc(S(N)(=O)=O)c2)c(C)c1Cl [Example 76, 2-(6-azaspiro[2.5]-octan-6-yl)-5-chloro-4,6-dimethyl-N-(3-sulfamoylphenyl) pyridine-3-carboxamide] | 2.2
10 | COc1ccc(C(=O)Nc2cccc(S(N)(=O)=O)c2)c(N2CCCCCC2)n1 [Example 91, 2-(azepan-1-yl)-6-methoxy-N-(3-sulfamoyl-phenyl)pyridine-3-carboxamide] | 29
11 | Cc1nc(N2CCCCCC2)c(C(=O)Nc2cccc(S(N)(=O)=O)c2)cc1C(F)(F)F [Example 168, 2-(azepan-1-yl)-6-methyl-N-(3-sulfamoylphenyl)-5-(trifluoromethyl)nicotinamide] | 3.2

Next, values leading:

Row | IC50 [nM] | Compound
12 | 186 | COC1CCCN(c2ncc(C(F)(F)F)cc2C(=O)Nc2cccc(S(N)(=O)=O)c2)CC1 (stereo not shown) [Example 49, 2-(4-methoxyazepan-1-yl)-N-(3-sulfamoyl-phenyl)-5-(trifluoro-methyl)pyridine-3-carboxamide]
13 | 239 | NS(=O)(=O)c1cccc(NC(=O)c2cc(C(F)(F)F)cnc2N2CCC(C(F)F)CC2)c1 [Example 50, 2-[4-(difluoromethyl)-1-piperidyl]-N-(3-sulfamoylphenyl)-5-(trifluoromethyl)-pyridine-3-carboxamide]
14 | 3 | CC1CN(c2ncc(C(F)(F)F)cc2C(=O)Nc2cccc(S(N)(=O)=O)c2)CCC1(F)F (single isomer, unassigned) [Example 123, (R or S)-2-(4,4-Difluoro-3-methylpiperidin-1-yl)-N-(3-sulfamoylphenyl)-5-(trifluoromethyl)nicotinamide]
15 | 25 | NS(=O)(=O)c1cccc(NC(=O)c2cc(C(F)(F)F)cnc2N2C[C@H]3CC[C@H]3C2)c1 [Example 134, 2-((1R,5S)-3-azabicyclo[3.2.0]heptan-3-yl]-N-(3-sulfamoyl-phenyl)-5-(trifluoro-methyl)-pyridine-3-carboxamide]
16 | 83 | NS(=O)(=O)c1cccc(NC(=O)c2cc(C(F)(F)F)cnc2N2CCO[C@H](C(F)(F)F)C2)c1 [Example 140, N-(3-sulfamoylphenyl)-5-(trifluoromethyl)-2-[(2S)-2-(trifluoro-methyl)--morpholin-4-yl]pyridine-3-carboxamide]
17 | 137 | NS(=O)(=O)c1cc(NC(=O)c2cc(C(F)(F)F)cnc2N2CCC(F)(F)CC2)cc(F)c1F [Example 171, N-(3,4-difluoro-5-sulfamoylphenyl)-2-(4,4-difluoropiperidin-1-yl)-5-(trifluoro-methyl)nicotinamide]
18 | 8.4 | CS(=O)(=O)c1cccc(NC(=O)c2cc(C(F)(F)F)cnc2N2CCCC(F)(F)CC2)c1 [Example 94, 2-(4,4-difluoroazepan-1-yl)-N-(3-methylsulfonylphenyl)-5-(trifluoromethyl)-pyridine-3-carboxamide]
19 | 6 | NS(=O)(=O)c1cccc(NC(=O)c2cc(C(F)(F)F)cnc2N2CCCCCCC2)c1 [Example 88, 2-(azocan-1-yl)-N-(3-sulfamoylphenyl)-5-(trifluoromethyl)-pyridine-3-carboxamide]

From patent US12344595B2, “2-amino-n-phenyl-nicotinamides as NAV1.8 inhibitors” (Merck Sharp & Dohme LLC, priority 2018, dated 2025)
